Data on 3 molecules can be found in paper PMC4995692, “An assay to measure poly(ADP ribose) glycohydrolase (PARG) activity in cells” (F1000Research, 2016).

“Also recorded” adds a separate entry of the source.

The test system of test [1] is Murine embryonic fibroblasts (MEFs). Kind of test: SRB assay, MMS sensitivity of MEFs. In kind it is cell-based. Particulars: Mus musculus, Fibroblast, 72 h. The method, then:
(§1) Cells in 96-well plates were fixed with the addition of 100 µL ice cold 10% trichloroacetic acid to the media. After 1 h at 4°C, the cells were washed twice with PBS and left to dry. Once dry, 100 µL 0.2% sulforhodamine B (SRB) was add to each well and incubated for 15 min at room temperature. The cells were washed three times with 200 µL 1% acetic acid and then dried. To solubilise the remaining SRB, 200 µL 10 mM Tris pH10.5 was added to each well and the plate incubated with agitation for 10 min. Absorbance at 520 nm was measured on a plate reader (Biotek, Swindon, UK).
Background: In SRB staining, fixed cells bind dye roughly in proportion to their protein.

A further test relates to SW620 cells. Kind of test: SW620 proliferation after MMS (Hoechst stain). In kind it is cell-based, human. Particulars: MMS 72 h.
In test [2] the test system is nuclear PAR chains in Hela cells. In kind it is cell-based, human. To be noted: 250 µg/mL MMS. The method, then:
Exponentially growing HeLa cells were trypsinized and resuspended in complete media before being filtered through a […] cell strainer (#352340, BD Falcon, Oxford, UK). Cells were then counted using a Muse cell counter (Merck Millipore, Hertfordshire, UK) and seeded in 30 µL of media at 4×10 ^4 cells/mL in Greiner 384-well plates (#781091, Greiner Bio-One, Stonehouse, UK) and placed in a cell culture incubator. After 16–24 h the plates were centrifuged briefly at 164× g and the cells dosed with compound(s) or vehicle (DMSO) control using an Echo 550 (Labcyte, Dublin, Ireland). […] After 1 h the plate was re-spun and cells co-dosed with different concentrations of MMS (50–250 µg/mL final concentration) or DMSO using the Echo 550 and incubated for a given time (30 min–2 h) at 37°C in a cell culture incubator. […] Following three washes with PBS, the plates were sealed and images captured using a 10× objective on a CellInsight (ThermoFisher) and analysed using Cellomics Scan compartmental analysis software (ThermoFisher). A threshold determined by assessing the signal in DMSO treated cells was applied to the pixel intensity and a Box Detection application was used to detect objects smaller than five pixels in radius within the nucleus. […]

The test system of a further test is H1048 cells. Kind of test: SRB assay, MMS sensitivity of H1048. In kind it is cell-based. Particulars: Homo sapiens, NCI-H1048, 72 h. As to the method:
as §1

Test [3] concerns PAR chains in PARG KD cells. Kind of test: PAR chain detection after MMS, preliminary western blot. In kind it is cell-based, human. To be noted: 250 µg/mL MMS. Background: Immunoblotting shows a protein as a band on a membrane.
Test [4] concerns PARG KD Hela cells (PARG Silencix). Kind of test: Growth inhibition by MMS in PARG KD Hela cells. In kind it is cell-based. Particulars: Homo sapiens, 120 h, 5 days.
The test system of another test is control Hela cells. Kind of test: Growth inhibition by MMS in control Hela cells. In kind it is cell-based. To be noted: Homo sapiens, 120 h, 5 days.
The target in the next test is PARG (Homo sapiens, UniProt Q86W56). Kind of test: PAR chain assay in SW620 cells with temozolomide. In kind it is cell-based.
Sequence of PARG (Q86W56 whole entry): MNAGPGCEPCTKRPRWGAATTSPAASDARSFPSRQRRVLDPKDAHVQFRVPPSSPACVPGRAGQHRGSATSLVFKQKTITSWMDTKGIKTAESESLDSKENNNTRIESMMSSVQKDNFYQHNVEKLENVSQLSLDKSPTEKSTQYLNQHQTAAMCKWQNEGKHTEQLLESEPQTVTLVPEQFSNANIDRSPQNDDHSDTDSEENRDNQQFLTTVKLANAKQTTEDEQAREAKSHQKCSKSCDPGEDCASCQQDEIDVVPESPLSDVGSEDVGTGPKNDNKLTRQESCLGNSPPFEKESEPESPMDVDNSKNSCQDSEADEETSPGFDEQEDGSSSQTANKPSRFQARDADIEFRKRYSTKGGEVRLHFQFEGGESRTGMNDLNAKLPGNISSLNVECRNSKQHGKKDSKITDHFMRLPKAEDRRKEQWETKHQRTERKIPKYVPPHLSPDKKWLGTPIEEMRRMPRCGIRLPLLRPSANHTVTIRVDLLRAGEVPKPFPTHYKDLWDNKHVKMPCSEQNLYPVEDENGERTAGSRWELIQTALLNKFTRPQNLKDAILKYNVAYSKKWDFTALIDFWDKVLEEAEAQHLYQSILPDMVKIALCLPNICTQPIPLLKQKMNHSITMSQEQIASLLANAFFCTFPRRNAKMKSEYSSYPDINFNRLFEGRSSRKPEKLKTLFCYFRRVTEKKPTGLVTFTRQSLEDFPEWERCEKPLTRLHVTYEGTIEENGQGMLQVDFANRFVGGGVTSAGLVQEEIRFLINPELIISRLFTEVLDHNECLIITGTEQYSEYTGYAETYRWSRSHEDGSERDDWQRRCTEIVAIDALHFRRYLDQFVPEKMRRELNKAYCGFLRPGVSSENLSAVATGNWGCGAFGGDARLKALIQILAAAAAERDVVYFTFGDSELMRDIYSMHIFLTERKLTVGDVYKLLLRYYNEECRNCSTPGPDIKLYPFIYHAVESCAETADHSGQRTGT

Turning to `COS(C)(=O)=O` [MMS, Methylmethanesulfonate], the concentration for half-maximal inhibition (IC50) (usually the midpoint of a concentration-inhibition curve) came to 14.5 µM in test [1], 9 µM with H1048 cells, 6.2 µg/mL in test [4] and 16.5 µg/mL in the test with control Hela cells. In addition, the proliferation entry in the test with SW620 cells was “dose-dependent decrease”. For the same molecule, in test [2], the “time of maximum nuclear PAR signal” value is 25 min. In addition, the “time of peak of PAR chains after MMS addition” value in test [3] is listed as “approximately 20 min”.

In the case of `Cn1nnc2c(C(N)=O)ncn2c1=O` [TMZ, Temozolomide], the PAR signal result at PARG (one hour after TMZ alone) is “no PAR signal detectable”.

Take `O=C(c1cc(Cc2n[nH]c(=O)c3ccccc23)ccc1F)N1CCN(C(=O)C2CC2)CC1` [olaparib]: the PAR signal entry at PARG (increasing concentrations of compound, 150 µg/mL temozolomide for 1 h) is “did not lead to any increase; also recorded: no effect”; on PARG (pre-treated at 300 nM, 1 h temozolomide 1.5-200 µg/mL) it was “no effect”.
